Values after ≈ are worked out from the molar mass of the structure shown. Active and inactive are the calls of the source. The rule behind the calls is not given here. Some results are limits rather than exact numbers.

In general, MIC refers to the lowest concentration found to suppress growth.

The subject of experiment [1] is Acinetobacter. The experiment is described as follows: Antimicrobial activity against Acinetobacter baumannii-Acinetobacter calcoaceticus complex isolated from diabetic patient with calcaneal osteomyelitis by broth microdilution assay. Type of experiment: functional.
Experiment [2] deals with Acinetobacter. The experiment is described as follows: Antimicrobial activity against 8 ug/ml colistin-subcultured Acinetobacter baumannii-Acinetobacter calcoaceticus complex isolated from diabetic patient with calcaneal osteomyelitis and bacteremia by broth microdilution assay. Type of experiment: functional.

Turning to COLISTIN, the MIC with Acinetobacter [1] was 1 µg/mL; in the experiment on Acinetobacter [2], over 16 µg/mL.

Regarding `O=C(O)[C@H]1/C(=C/CO)O[C@@H]2CC(=O)N21` [CLAVULANIC ACID], the MIC in the experiment with Acinetobacter [1] is over 2 µg/mL. Besides, the MIC entry with Acinetobacter [2] was “inactive”.

As for `C[C@@H](O)[C@H]1C(=O)N2C(C(=O)O)=C(SCCNC=N)C[C@H]12` [IMIPENEM ANHYDROUS], in the experiment with Acinetobacter [1], the MIC was 16 µg/mL (≈ 53.4 µM). The MIC result in the experiment on Acinetobacter [2] is “inactive”.

Turning to `CC(C)(O/N=C(\C(=O)N[C@@H]1C(=O)N2C(C(=O)[O-])=C(C[n+]3ccccc3)CS[C@H]12)c1csc(N)n1)C(=O)O` [CEFTAZIDIME], in the experiment with Acinetobacter [1], the MIC is over 64 µg/mL. In addition, in the experiment with Acinetobacter [2], the MIC result was “inactive”.

Consider `CC1(C)S[C@@H]2[C@H](NC(=O)[C@H](N)c3ccccc3)C(=O)N2[C@H]1C(=O)O` [AMPICILLIN], for which, in the experiment with Acinetobacter [1], the minimal inhibitory concentration (MIC) was over 8 µg/mL. For the same compound, in the experiment on Acinetobacter [2], the MIC result was “inactive”.

Turning to `CN(C)c1cc(NC(=O)CNC(C)(C)C)c(O)c2c1C[C@H]1C[C@H]3[C@H](N(C)C)C(O)=C(C(N)=O)C(=O)[C@@]3(O)C(O)=C1C2=O` [TIGECYCLINE], the MIC is 2 µg/mL (≈ 3.41 µM) with Acinetobacter [1] and 0.12 µg/mL with Acinetobacter [2].

For POLYMYXIN B, the MIC in the experiment with Acinetobacter [1] was 1 µg/mL; in the experiment on Acinetobacter [2] it was 4 µg/mL.

In the case of `CN(C)c1ccc(O)c2c1C[C@H]1C[C@H]3[C@H](N(C)C)C(O)=C(C(N)=O)C(=O)[C@@]3(O)C(O)=C1C2=O` [MINOCYCLINE], the MIC in the experiment with Acinetobacter [1] is 1 µg/mL (≈ 2.19 µM). For the same compound, in the experiment on Acinetobacter [2], the MIC result is “inactive”.

Turning to `NCC[C@H](O)C(=O)N[C@@H]1C[C@H](N)[C@@H](O[C@H]2O[C@H](CN)[C@@H](O)[C@H](O)[C@H]2O)[C@H](O)[C@H]1O[C@H]1O[C@H](CO)[C@@H](O)[C@H](N)[C@H]1O` [AMIKACIN], the MIC in the experiment with Acinetobacter [1] was 8 µg/mL (≈ 13.7 µM). The MIC result in the experiment on Acinetobacter [2] is “inactive”.

For GENTAMICIN, the MIC in the experiment with Acinetobacter [1] was over 8 µg/mL. In addition, the MIC result with Acinetobacter [2] is “inactive”.

On to `CC[C@H]1OC(=O)[C@H](C)[C@@H](O[C@H]2C[C@@](C)(OC)[C@@H](O)[C@H](C)O2)[C@H](C)[C@@H](O[C@@H]2O[C@H](C)C[C@H](N(C)C)[C@H]2O)[C@](C)(O)C[C@@H](C)CN(C)[C@H](C)[C@@H](O)[C@]1(C)O` [AZITHROMYCIN], for which, in the experiment on Acinetobacter [1], the MIC was 8 µg/mL (≈ 10.7 µM). For the same compound, in the experiment on Acinetobacter [2], the MIC entry was “inactive”.

Take `CC1(C)S[C@@H]2[C@H](NC(=O)[C@H](C(=O)O)c3ccsc3)C(=O)N2[C@H]1C(=O)O` [TICARCILLIN]: the MIC in the experiment on Acinetobacter [1] was over 256 µg/mL. In the experiment with Acinetobacter [2], the MIC result is “inactive”.

For the compound `CC1(C)[C@H](C(=O)O)N2C(=O)C[C@H]2S1(=O)=O` [SULBACTAM], the MIC in the experiment with Acinetobacter [1] is over 64 µg/mL. Moreover, the MIC result in the experiment with Acinetobacter [2] was “inactive”.

Take `C[C@H]1c2cccc(O)c2C(=O)C2=C(O)[C@]3(O)C(=O)C(C(N)=O)=C(O)[C@@H](N(C)C)[C@@H]3[C@@H](O)[C@@H]21.O` [DOXYCYCLINE]: the values for the MIC in the experiment on Acinetobacter [1] and in the experiment on Acinetobacter [2] were 8 µg/mL and 1 µg/mL, respectively.

Source of the values: ChEMBL document CHEMBL1151430, “Development of colistin-dependent Acinetobacter baumannii-Acinetobacter calcoaceticus complex” (2007).
